{
  "source": "patent US20020091133A1",
  "about": "“Use of 9-substituted purine analogues and other molecules to stimulate neurogenesis” (Eve M. Taylor, priority 2000, published 2002)",
  "key": {"[1]": {"tested_on": "neural stem and progenitor cells in the dentate gyrus", "test": "Neural stem and progenitor cell differentiation: BrdU/NeuN/S100β colocalization in dentate gyrus 42 days after single AIT-082 dose", "assay_type": "in vivo", "details": "adult mice", "experimental": "AIT-082 was administered intraperitoneally to adult mice (5-7 per group) at a dose of 1 -100 mg/kg. Saline was given as a negative control. Starting two hours after AIT-082 administration, animals received four intraperitoneal injections of bromodeoxyuridine (BrdU; 50 mg/kg each) at 3 hr intervals. Animals were perfused at 42 days after the AIT-082 administration. During these 42 days newly born neural stem cells have enough time to differentiate into neurons, astrocytes and other brain cells. This treatment regimen is outlined in FIG. 3.\nAnimals were perfused, brains treated and sections prepared as described for Example 1.\nEvery sixth section through the rostral-caudal extent of the hippocampus was immunostained with rat anti-BrdU paired with a Alexa 568 goat anti-rat IgG (red), mouse anti-NeuN (a neuronal marker) paired with Alexa 488 goat anti-mouse IgG (green), and rabbit anti-S100β (an astrocytes marker) paired with Alexa 647 goat anti-rabbit IgG (blue). Stereological techniques were used to estimate the total number of BrdU-positive nuclei in the dentate gyrus and the number of BrdU-positive cells that were also positive for NeuN (i.e indicating newly formed neurons) or S100β (indicating newly formed astrocytes). Cells that were BrdU-positive and not positive for either NeuN or S100β were labeled “other”. […]"}, "[2]": {"tested_on": "neural stem and progenitor cells in the dentate gyrus", "test": "Neural stem and progenitor cell proliferation: BrdU labeling in dentate gyrus 24 hr after single AIT-082 dose", "assay_type": "in vivo", "details": "adult mice, single intraperitoneal dose 0.1-10 mg/kg, perfused at 24 hr; normalized to saline control, two experiments combined (FIG. 2)", "experimental": "In two separate experiments, AIT-082 was administered intraperitoneally to adult mice (5-7 per group) at 0.01-100 mg/kg. Saline was given as a negative control. Starting two hours after AIT-082 administration, animals received four intraperitoneal injections of bromodeoxyuridine (BrdU; 50 mg/kg each) at 3 hr intervals. BrdU is a thymidine analogue that is incorporated into DNA during synthesis and thus labels newly formed cells. Animals were perfused at 24 hr after the AIT-082 administration. This treatment regimen is outlined in FIG. 1.\nAnimals were perfused transcardially with 50 mL ice-cold phosphate buffered saline (PBS) and then 100 mL of 4% paraformaldehyde in PBS. Brains were removed, post-fixed in 4% paraformaldehyde for 24 hr at 4° C., and then transferred to 30% sucrose at 4° C. for a minimum of 3 days before sectioning. Coronal sections (40 μm) were prepared using a freezing microtome and stored in cryoprotectant at −20° C. before immunostaining for BrdU.\nEvery sixth section through the rostral-caudal extent of the hippocampus was immunostained for BrdU with mouse anti-BrdU paired with a biotinylated goat anti-mouse IgG. Avidin-biotin-horseradish peroxidase (HRP) complex was applied to sections and immunoreactivity visualized by reacting diaminobenzidine with the HRP. Stereological techniques were used to estimate the total number of BrdU-positive cells in the dentate gyrus."}},
  "data": [
    {"smiles": "O=C(CCn1cnc2c(=O)[nH]cnc21)Nc1ccc(C(=O)O)cc1", "note": "[AIT-082, N-4-[[3-(6-oxo-1,6-dihydropurin-9-yl)-1-oxopropyl]amino] benzoic acid]", "values": [
      {"measurement": "number of BrdU-positive cells in dentate gyrus", "setting": "[1]; single intraperitoneal dose 1 or 10 mg/kg, perfused at 42 days (FIG. 5A)", "value": "increase"},
      {"measurement": "number of new neurons formed in the dentate gyrus (BrdU- and NeuN-positive cells)", "setting": "[1]; single intraperitoneal dose, perfused at 42 days (FIG. 5B)", "value": "significant increase"},
      {"measurement": "total number of BrdU-positive cells in dentate gyrus", "setting": "[2]", "value": "statistically significant increase"}
    ]}
  ]
}
